# Where two headings read alike, the source gives them in different places.
# Tested on: IL-10 production by OvA-stimulated splenocytes
# Experiment: OvA-stimulated production of IL-10 by splenocytes of OvA-immunized mice
# Settings: for activity at 0.001 mg/kg / activity at 0.01 mg/kg: Mus musculus, Splenocyte, po, read-out: Production of IL-10 by splenocytes, % (% of control), OvA/FA
# [1] = OvA/Alum, 0.1 μg/kg i/p, OvA 10 μg/ml
# [2] = OvA/Alum, 0.1 μg/kg i/p, OvA 25 μg/ml
# [3] = OvA/Alum, 0.1 μg/kg i/p, OvA 50 μg/ml
# [4] = OvA/Alum, 0.1 μg/kg i/p, OvA 100 μg/ml
# [5] = OvA/Alum, 1.0 μg/kg i/p, OvA 10 μg/ml
# [6] = OvA/Alum, 1.0 μg/kg i/p, OvA 25 μg/ml
# [7] = OvA/Alum, 1.0 μg/kg i/p, OvA 50 μg/ml
# [8] = OvA/Alum, 1.0 μg/kg i/p, OvA 100 μg/ml
# [9] = OvA/FA, 0.1 μg/kg i/p, OvA 10 μg/ml
# [10] = OvA/FA, 0.1 μg/kg i/p, OvA 25 μg/ml
# [11] = OvA/FA, 0.1 μg/kg i/p, OvA 50 μg/ml
# [12] = OvA/FA, 0.1 μg/kg i/p, OvA 100 μg/ml
# [13] = OvA/FA, 1.0 μg/kg i/p, OvA 10 μg/ml
# [14] = OvA/FA, 1.0 μg/kg i/p, OvA 25 μg/ml
# [15] = OvA/FA, 1.0 μg/kg i/p, OvA 50 μg/ml
# [16] = OvA/FA, 1.0 μg/kg i/p, OvA 100 μg/ml
# Protocol: The OvA was administered subcutaneously to the crest in a volume of 200 μl. Mice were immunized on day 1 with OvA in complete Freund's adjuvant (CFA; Sigma) and on day 15 with the antigen in incomplete Freund's adjuvant (IFA; Sigma). The immune response was analyzed on day 29. Mice were also immunized with 10 μg/mouse of OvA using Alum as an adjuvant.
# Thymuses and spleens from mice of each treatment group were pooled, and then minced with scissors. The minced tissues were suspended in sterile PBS to form cell suspensions, filtered through a double gauze layer and centrifuged. Cells were washed twice with PBS, re-suspended in RPMI-1640 (Sigma) with 2.0 mM of L-glutamine, 50 μM of mercaptoethanol, and 10 μg/ml of gentamycin (complete medium); and cell counts were made. (The splenocyte suspension was washed with a 0.86% solution of NH4Cl to pre-lyse erthrocytes.)
# Assessment of Mitogen- and Antigen-Induced Production of Cytokines: Thymic cells (1×10^6/well) in complete medium with 2% FCS were stimulated with ConA (0, 1, and 2 μg/ml). Splenocytes (1×10^6/well) in complete medium with 5% FCS were stimulated with ConA (0, 1, and 5 μg/ml) and with OvA (0-100 μg/ml). […] Supernatants from OvA-stimulated cultures were collected after 72 hours. Supernatants from both cultures were frozen, and kept at 20° C. Concentrations of IL-2, IL-4, IL-10, IL-12R40 and IFNγ in the supernatants were determined by solid-phase EIA with EIA Expansion Kits, available from BD Biosciences (formerly Pharmingen), in accordance with the manufacturer's instructions.
smiles,measurement,setting,value
"N[C@H](CCC(=O)N[C@@H](Cc1c[nH]c2ccccc12)C(=O)O)C(=O)O [SCV-07, γ-D-glutamyl-L-tryptophan]",activity at 0.001 mg/kg,"1.0 μg/kg per os, OvA 50 μg/ml",275%
same,activity at 0.001 mg/kg,"1.0 μg/kg per os, OvA 100 μg/ml",317%
same,activity at 0.01 mg/kg,"10.0 μg/kg per os, OvA 0 μg/ml",100%
same,activity at 0.01 mg/kg,"10.0 μg/kg per os, OvA 10 μg/ml",133%
same,activity at 0.01 mg/kg,"10.0 μg/kg per os, OvA 25 μg/ml",174%
same,activity at 0.01 mg/kg,"10.0 μg/kg per os, OvA 50 μg/ml",216%
same,activity at 0.01 mg/kg,"10.0 μg/kg per os, OvA 100 μg/ml",250%
same,Production of IL-10 by splenocytes,"OvA/Alum, 0.1 μg/kg i/p, OvA 0 μg/ml",2177.8 pg/mL
same,Production of IL-10 by splenocytes,[1],1762.5 pg/mL
same,"Production of IL-10 by splenocytes, % (% of control)",[1],80.9%
same,Production of IL-10 by splenocytes,[2],1946.1 pg/mL
same,"Production of IL-10 by splenocytes, % (% of control)",[2],89.4%
same,Production of IL-10 by splenocytes,[3],1851.3 pg/mL
same,"Production of IL-10 by splenocytes, % (% of control)",[3],85.0%
same,Production of IL-10 by splenocytes,[4],2189.5 pg/mL
same,"Production of IL-10 by splenocytes, % (% of control)",[4],100.5%
same,Production of IL-10 by splenocytes,"OvA/Alum, 0.1 μg/kg per os, OvA 0 μg/ml",1351.1 pg/mL
same,Production of IL-10 by splenocytes,"OvA/Alum, 0.1 μg/kg per os, OvA 10 μg/ml",1587.9 pg/mL
same,Production of IL-10 by splenocytes,"OvA/Alum, 0.1 μg/kg per os, OvA 25 μg/ml",1419.5 pg/mL
same,Production of IL-10 by splenocytes,"OvA/Alum, 0.1 μg/kg per os, OvA 50 μg/ml",1783.6 pg/mL
same,Production of IL-10 by splenocytes,"OvA/Alum, 0.1 μg/kg per os, OvA 100 μg/ml",1741.5 pg/mL
same,Production of IL-10 by splenocytes,"OvA/Alum, 1.0 μg/kg i/p, OvA 0 μg/ml",2035.7 pg/mL
same,Production of IL-10 by splenocytes,[5],1758.9 pg/mL
same,"Production of IL-10 by splenocytes, % (% of control)",[5],86.4%
same,Production of IL-10 by splenocytes,[6],1829.8 pg/mL
same,"Production of IL-10 by splenocytes, % (% of control)",[6],89.9%
same,Production of IL-10 by splenocytes,[7],1584.7 pg/mL
same,"Production of IL-10 by splenocytes, % (% of control)",[7],77.8%
same,Production of IL-10 by splenocytes,[8],1840.7 pg/mL
same,"Production of IL-10 by splenocytes, % (% of control)",[8],90.4%
same,Production of IL-10 by splenocytes,"OvA/Alum, 1.0 μg/kg per os, OvA 0 μg/ml",1741.5 pg/mL
same,Production of IL-10 by splenocytes,"OvA/Alum, 1.0 μg/kg per os, OvA 10 μg/ml",2220.9 pg/mL
same,Production of IL-10 by splenocytes,"OvA/Alum, 1.0 μg/kg per os, OvA 25 μg/ml",1957.2 pg/mL
same,Production of IL-10 by splenocytes,"OvA/Alum, 1.0 μg/kg per os, OvA 50 μg/ml",1920.4 pg/mL
same,Production of IL-10 by splenocytes,"OvA/Alum, 1.0 μg/kg per os, OvA 100 μg/ml",1898.4 pg/mL
same,Production of IL-10 by splenocytes,"OvA/Alum, 10.0 μg/kg per os, OvA 0 μg/ml",816.4 pg/mL
same,Production of IL-10 by splenocytes,"OvA/Alum, 10.0 μg/kg per os, OvA 10 μg/ml",1127.5 pg/mL
same,Production of IL-10 by splenocytes,"OvA/Alum, 10.0 μg/kg per os, OvA 25 μg/ml",1272.5 pg/mL
same,Production of IL-10 by splenocytes,"OvA/Alum, 10.0 μg/kg per os, OvA 50 μg/ml",1608.4 pg/mL
same,Production of IL-10 by splenocytes,"OvA/Alum, 10.0 μg/kg per os, OvA 100 μg/ml",1780.1 pg/mL
same,Production of IL-10 by splenocytes,"OvA/FA, 0.1 μg/kg i/p, OvA 0 μg/ml",785.1 pg/mL
same,Production of IL-10 by splenocytes,[9],989.4 pg/mL
same,"Production of IL-10 by splenocytes, % (% of control)",[9],126.0%
same,Production of IL-10 by splenocytes,[10],1234.3 pg/mL
same,"Production of IL-10 by splenocytes, % (% of control)",[10],157.2%
same,Production of IL-10 by splenocytes,[11],1194.2 pg/mL
same,"Production of IL-10 by splenocytes, % (% of control)",[11],152.1%
same,Production of IL-10 by splenocytes,[12],1502.4 pg/mL
same,"Production of IL-10 by splenocytes, % (% of control)",[12],191.4%
same,Production of IL-10 by splenocytes,"OvA/FA, 0.1 μg/kg per os, OvA 0 μg/ml",702.5 pg/mL
same,Production of IL-10 by splenocytes,"OvA/FA, 0.1 μg/kg per os, OvA 10 μg/ml",958.9 pg/mL
same,Production of IL-10 by splenocytes,"OvA/FA, 0.1 μg/kg per os, OvA 25 μg/ml",1478.2 pg/mL
same,Production of IL-10 by splenocytes,"OvA/FA, 0.1 μg/kg per os, OvA 50 μg/ml",1739.2 pg/mL
same,Production of IL-10 by splenocytes,"OvA/FA, 0.1 μg/kg per os, OvA 100 μg/ml",1895.4 pg/mL
same,Production of IL-10 by splenocytes,"OvA/FA, 1.0 μg/kg i/p, OvA 0 μg/ml",457.4 pg/mL
same,Production of IL-10 by splenocytes,[13],813.4 pg/mL
same,"Production of IL-10 by splenocytes, % (% of control)",[13],177.8%
same,Production of IL-10 by splenocytes,[14],774.1 pg/mL
same,"Production of IL-10 by splenocytes, % (% of control)",[14],169.2%
same,Production of IL-10 by splenocytes,[15],852.4 pg/mL
same,"Production of IL-10 by splenocytes, % (% of control)",[15],186.4%
same,Production of IL-10 by splenocytes,[16],963.8 pg/mL
same,"Production of IL-10 by splenocytes, % (% of control)",[16],210.7%
same,Production of IL-10 by splenocytes,"OvA/FA, 1.0 μg/kg per os, OvA 0 μg/ml",407.6 pg/mL
same,Production of IL-10 by splenocytes,"OvA/FA, 1.0 μg/kg per os, OvA 10 μg/ml",953.1 pg/mL
same,Production of IL-10 by splenocytes,"OvA/FA, 1.0 μg/kg per os, OvA 25 μg/ml",984.1 pg/mL
same,Production of IL-10 by splenocytes,"OvA/FA, 1.0 μg/kg per os, OvA 50 μg/ml",1120.7 pg/mL
same,Production of IL-10 by splenocytes,"OvA/FA, 1.0 μg/kg per os, OvA 100 μg/ml",1292.2 pg/mL
same,Production of IL-10 by splenocytes,"OvA/FA, 10.0 μg/kg per os, OvA 0 μg/ml",627.3 pg/mL
same,Production of IL-10 by splenocytes,"OvA/FA, 10.0 μg/kg per os, OvA 10 μg/ml",831.6 pg/mL
same,Production of IL-10 by splenocytes,"OvA/FA, 10.0 μg/kg per os, OvA 25 μg/ml",1092.7 pg/mL
same,Production of IL-10 by splenocytes,"OvA/FA, 10.0 μg/kg per os, OvA 50 μg/ml",1356.1 pg/mL
same,Production of IL-10 by splenocytes,"OvA/FA, 10.0 μg/kg per os, OvA 100 μg/ml",1569.3 pg/mL

# Source: patent publication US20090074815A1, “Immunomodulator Compounds as Vaccine Enhancers” (SCICLONE PHARMACEUTICALS, INC., priority 2005, published 2009)
